The subject of data set [1] is E16-17 mouse hippocampal neurons. Briefly: Hippocampal neuron survival (morphology plus MTT conversion). Type of data set: cell-based. The following applies: for neurotrophic activity (neuron survival response): 48 h, counts normalized to 25 ng/ml BDNF or baseline, up to 5 nM. Here is the method:
(§1) Hippocampal neurons were prepared from E16-17 mouse embryos as previously described (Yang. T. et al. (2003) J Neurosci 23, 3353-3363). […] For studies employing p75^NTR+/+ and p75^NTR−/− neurons, mice carrying a mutation in exon 3 of the p75^NTR gene (Lee, K. F. et al. (1992) Cell 69, 737-749) were bred onto a B6 congenic background (>10 B6 backcrosses).
(§2) After 48 hours in culture, cell survival was assessed as previously described (Longo, F. M., Manthorpe. M., Xie. Y. M., Varon, S. (1997) J Neurosci Res 48, 1-17) using a combination of standard morphological criteria along with visual determination of whether a given cell converted MTT to its blue formazan product. The number of surviving neurons was determined by counting the total number of cells in each well that were both morphologically intact and filed with blue product (Longo F. M., Manthorpe. M., Xie, Y. M., Varon, S. (1997) J Neurosci Res 48, 1-17). For each neurotrophin or compound concentration, duplicate wells were counted and the resulting values averaged. Activity of each compound was confirmed by blinded counts. Counts were normalized to survival achieved with 25 ng/ml BDNF or to baseline survival. Fitting of dose-responsive curves was performed with Sigmaplot obtained from SYSTAT Software Inc. (Richmond, Calif., United States of America).

A further data set has as its system chicken DRG neuronal. Briefly: Chicken DRG neuronal survival assay. The following applies: preliminary screening. Type of data set: cell-based.
In the next data set the target is T1, p75^NTR-Fc (Homo sapiens, UniProt P08138).
T1 construct: purchased R&D Systems
T1 sequence (P08138 with tags, fused parts or gaps limits assumed): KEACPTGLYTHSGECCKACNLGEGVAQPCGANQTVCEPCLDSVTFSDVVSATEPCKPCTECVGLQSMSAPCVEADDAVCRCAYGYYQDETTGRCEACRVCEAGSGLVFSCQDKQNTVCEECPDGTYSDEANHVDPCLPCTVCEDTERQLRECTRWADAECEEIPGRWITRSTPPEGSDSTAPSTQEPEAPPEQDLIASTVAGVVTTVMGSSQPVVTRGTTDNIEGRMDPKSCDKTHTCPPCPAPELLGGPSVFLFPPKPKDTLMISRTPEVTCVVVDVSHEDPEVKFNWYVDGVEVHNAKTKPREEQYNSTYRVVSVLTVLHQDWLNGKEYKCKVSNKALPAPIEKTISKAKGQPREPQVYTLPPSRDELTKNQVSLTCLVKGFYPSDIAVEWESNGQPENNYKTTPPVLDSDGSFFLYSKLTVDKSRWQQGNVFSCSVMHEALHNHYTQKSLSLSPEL
Briefly: NGF/p75NTR-Fc binding by NGF ELISA, Gaddum/Schild fit. The method, then: (§3) Briefly, 96-well plates were incubated with 0.1 pmol (at 1 nM) of p75/Fc or TrkA/Fc recombinant protein obtained from R&D System (Minneapolis, Minn., United States of America) overnight at 4° C. followed by incubation with blocking buffer for 1 hour at room temperature. […] Plates were then washed five times with Tris-buffered saline (TBS) containing 0.05% Tween-20 and incubated with anti-NGF rabbit polyclonal antibody overnight at 4° C. Following five washes with TBS, wells were incubated for 2.5 hours at room temperature with anti-rabbit IgG HRP conjugate and washed five times. 3,3′,5,5′-tetramethyl-benzidine substrate was added and the optical density measured at 450 nm.
A regression analysis of NGF-p75^NTR binding in the presence of the p75-binding compounds was performed. The data was fit using the Nonlinear Regression module of Sigmaplot, to a modification of the Gaddum/Schild equation (adapted from Motulsky, H. J., and Christopoulos. A. (2003) A Practical Guide to Curve Fitting, 2nd edn. (San Diego, Calif., GraphPad Software, Inc.): […]
Background: An ELISA detects its analyte on a solid surface through an enzyme-linked reagent.

In the next data set the test system is TrkA-Fc. Briefly: NGF/TrkA-Fc binding by NGF ELISA. The following applies: up to 10,000 nM compound. The method, then: as §3
In data set [2] the test system is hippocampal neurons. Briefly: Hippocampal neuron survival with p75NTR antisera (antibody inhibition). The following applies: antiserum 1:100, 48 h. The data set is classed as cell-based, mouse. The method, then:
as §1, §2
(§4) For all studies applying signaling inhibitors, p75^NTR antibodies or p75^NTR−/− neurons, survival was assessed at 48 hours.

The test system of a further data set is p75^NTR−/− cells. Briefly: Survival of p75NTR+/+ versus p75NTR-/- hippocampal neurons. The data set is classed as cell-based, mouse. The following applies: neurotrophins 1.8 nM, compounds 5 nM. Here is the method:
as §1, §2, §4

The subject of a further data set is NFκB-p65. Briefly: NFκB-p65 phosphorylation western blot in hippocampal cultures. The data set is classed as cell-based, mouse. The following applies: 20 nM. The method, then: (§5) For assays of Trk, AKT, NFκB, and ERK activation, hippocampal neurons derived from E16-17 mice were cultured in poly-L-lysine coated six-well plates (Corning, Inc., Corning, N.Y., United States of America) in DMEM containing 10% FBS, followed by incubation in serum-free DMEM for 2 hours before addition of neurotrophins or compounds. At the indicated time points, neurons were harvested in lysis buffer consisting of: 20 mM Tris, pH 8.0, 137 mM NaCl, 1% Igepal CA-630, 10% glycerol, 1 mM PMSF, 10 μg/ml aprotinin, 1 μg/ml leupeptin, 500 μM orthovanadate (Zhou, J., Valletta, J. S., Grimes, M. L., Mobley, W. C. (1995) J Neurochem 65, 1146-1156).
(§6) Lysates were centrifuged, the supernatant collected, and protein concentrations determined using the BCA Protein Assay Reagent obtained from Pierce (Rockford, Ill., United States of America). Western blots were performed as described previously (Yang, T. et al. (2003) J Neurosci 23, 3353-3363). Western blot signals were detected using the ECL Chemiluminescence System obtained by Amersham (Piscataway, N.J., United States of America) (Yang, T. et al. (2003) J Neurosci 23, 3353-3363).
Background: A western blot detects proteins with antibodies after separation by electrophoresis.

Another data set relates to AKT. Briefly: AKT activation western blot in hippocampal cultures. The data set is classed as cell-based, mouse. Here is the method:
as §5, §6

The subject of data set [3] is hippocampal neurons. Briefly: Hippocampal neuron survival with signaling pathway inhibitors. The following applies: BDNF/NGF 25 ng/ml, compounds 5 nM, 48 h; for effect of PD98059 (ERK inhibitor) on survival promoted by the substance: PD98059 50 μM. Type of data set: cell-based, mouse. Here is the method: as §1, §2, §4
For another data set, the system named is mature oligodendrocytes. Briefly: Oligodendrocyte cell death assay (MBP/TUNEL) with or without proNGF. The data set is classed as cell-based, rat. The following applies: 24 h. Here is the method:
Cortical oligondendrocytes from rat pups were prepared as previously described (Yoon et al. (1998) J Neurosci 18, 3273-3281, Harrington, A. W., Kim, J. Y., Yoon, S. O. (2002) J Neurosci 22, 156-166). Cells were treated with recombinant, cleavage-resistant proNGF at 0.05 nM (2.8 ng/ml). Controls were treated with equivalent volumes of proNGF purification buffer containing 350 mM imidazole. 24 hours after treatment, the cells were fixed and processed for MBP and TUNEL staining as previously described (Beattie, M. S. et al. (2002) Neuron 36, 375-386). 200-250 cells were counted per well, for a minimum of 600 cells per experimental condition.

The target of a further data set is T2, p75^NTR (Homo sapiens, UniProt P08138).
T2 construct: purchased R&D Systems
T2 sequence (P08138 with tags, fused parts or gaps limits assumed): as above
Briefly: proNGF binding to p75NTR by ELISA. The following applies: 100 ng/ml proNGF. The method, then: as §3

The next data set has as its system E17 hippocampal neurons. Briefly: Aβ-induced death of hippocampal neurons. Type of data set: cell-based. The following applies: Aβ1-42 10 μM. Here is the method:
Using previously well established protocols, Aβ was preincubated for 3 days in water to allow formation of oligomers. E17 hippocampal neurons were incubated for 5 days to allow for maturation prior to addition of Aβ with test compounds.

The target in another data set is T3, TrkB (Mus musculus, UniProt P15209).
T3 construct: endogenous in cells; host or cells: primary hippocampal neurons from E16-17 mouse embryos
T3 sequence (P15209 32-821): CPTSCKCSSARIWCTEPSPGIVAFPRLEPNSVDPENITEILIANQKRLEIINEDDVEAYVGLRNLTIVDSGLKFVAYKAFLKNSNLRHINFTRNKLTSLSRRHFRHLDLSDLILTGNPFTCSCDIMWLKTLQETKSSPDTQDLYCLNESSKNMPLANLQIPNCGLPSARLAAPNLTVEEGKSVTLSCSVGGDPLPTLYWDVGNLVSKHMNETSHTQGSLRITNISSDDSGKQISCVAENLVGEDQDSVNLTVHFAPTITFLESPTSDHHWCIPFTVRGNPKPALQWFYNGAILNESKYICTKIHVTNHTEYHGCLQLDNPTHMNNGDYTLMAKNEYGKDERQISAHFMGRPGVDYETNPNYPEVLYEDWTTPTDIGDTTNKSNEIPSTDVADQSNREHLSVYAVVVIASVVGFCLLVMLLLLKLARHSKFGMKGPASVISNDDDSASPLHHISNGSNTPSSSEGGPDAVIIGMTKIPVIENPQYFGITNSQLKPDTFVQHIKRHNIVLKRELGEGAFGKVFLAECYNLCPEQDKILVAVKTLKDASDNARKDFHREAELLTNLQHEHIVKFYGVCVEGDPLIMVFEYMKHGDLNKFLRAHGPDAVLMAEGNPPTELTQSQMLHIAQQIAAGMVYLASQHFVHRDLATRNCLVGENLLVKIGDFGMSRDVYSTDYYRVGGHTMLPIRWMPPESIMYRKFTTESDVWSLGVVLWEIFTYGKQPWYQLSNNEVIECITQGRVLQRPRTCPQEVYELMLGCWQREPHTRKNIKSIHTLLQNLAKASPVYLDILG
Briefly: Trk Y490 phosphorylation western blot in hippocampal neuron cultures. The data set is classed as cell-based. The following applies: 10 or 30 minutes. Here is the method: as §5, §6

The subject of a further data set is ERK42. Briefly: ERK42 activation western blot in hippocampal cultures. The data set is classed as cell-based, mouse. The following applies: compounds 20 nM, BDNF/NGF 50 ng/ml; 10 and 30 min. The method, then: as §5, §6

“Also recorded” adds a separate entry of the source.

For orientation: EC50 means the concentration giving half of the maximal effect.

As for `NCCNc1ccc([N+](=O)O)c(N2CCCCC2)c1` [Compound 1], the “neurotrophic activity (neuron survival response)” value in [1] is listed as “active”. In addition, the “activity in DRG neuronal survival” value in the data set on chicken DRG neuronal was “active”.

Take `N=C(N)NC(=N)NCCNC(=N)NC(=N)N` [Compound 7]: in data set [1], the “neurotrophic activity (neuron survival response)” value is “active”. In addition, the “activity in DRG neuronal survival” value with chicken DRG neuronal is recorded as “active”.

Consider `CN(C)CCCNC(=O)Cn1cnc2c1c(=O)n(C)c(=O)n2C` [Compound 3], for which the “additive effect on survival with NGF” value in [1] (5 nM compound along with 50 ng/ml NGF) is “no additive effect on survival”. Further, the “compound concentration at which binding curve differs from 0 nM curve (P<0.0001)” value at p75^NTR-Fc (ANOVA with post-hoc Bonferroni/Dunn) is listed as not below 125 nM. For the same molecule, the Schild coefficient on p75^NTR-Fc (Gaddum-Schild fit) is given as 0.26 +/−0.01. In addition, the “shift of the NGF/p75NTR-Fc binding curve” value at p75^NTR-Fc (increasing compound concentrations) is recorded as “significantly to the right”. For the same molecule, in the data set on TrkA-Fc, the “effect on NGF binding to TrkA-Fc” value is given as “did not affect; also recorded: no compound effects up to 10,000 nM”. In addition, in the data set with hippocampal neurons [2], the “effect of Ab 9651 on promotion of neuron survival by the substance” value is recorded as “completely blocked; also recorded: completely inhibits” and the “survival versus CM in the presence of Ab 9651” value is reported as “not significant”. Besides, the “effect of p75NTR-deficiency on promotion of neuron survival by the substance” value in the data set with p75^NTR−/− cells is on record as “completely inhibits”. Also, in the data set with NFκB-p65, the “increase in NFκB-p65 phosphorylation” value is given as “approximately 1.5 fold”. The “onset of AKT activation” value in the data set with AKT (20 nM, relative to NGF) is “slower than that of NGF”. In addition, in the data set on hippocampal neurons [3], the “effect of PD98059 (ERK inhibitor) on survival promoted by the substance” value is listed as “no significant decrease”. Moreover, the “effect of SN50 (NFκB translocation inhibitor) on survival promoted by the substance” value in the data set with hippocampal neurons [3] (SN50 2.5 μg/ml) is “significantly reduced”. The “inhibition of proNGF-induced oligodendrocyte death” value with mature oligodendrocytes (2.8 ng/ml (0.05 nM) proNGF) is “significantly inhibited; also recorded: blocked cell death”. Also, the “promotion of oligodendrocyte cell death by compound alone” value in the data set with mature oligodendrocytes (absence of proNGF) is listed as “did not promote cell death”. In addition, the “proNGF ELISA signal versus proNGF alone” value at p75^NTR (P<0.01) is given as “significantly less than proNGF alone”. For the same molecule, the “decrement of proNGF binding to p75NTR” value at p75^NTR (at the highest concentration (range 1500 nM to 10,000 nM)) is reported as “approximately 30%”. The “protection against Aβ1-42-induced death” value in the data set on E17 hippocampal neurons (NGF at 100 pg/ml) is “blocks Aβ-induced death with a dose-response effect”. Further, in the data set with E17 hippocampal neurons (Hippocampal neuron, read-out: EC50 for blocking Aβ-induced death), the EC50 is approximately 10 nM.

B1: BDNF: brain-derived neurotrophic factor from Sigma-Aldrich (protein, UniProt P23560 19-247, looked up)
Neurotrophic factor BDNF …: APMKEANIRGQGGLAYPGVRTHGTLESVNGPKAGSRGLTSLADTFEHVIEELLDEDQKVRPNEENNKDADLYTSRVMLSSQVPLEPPLLFLLEEYKNYLDAANMSMRVRRHSDPARRGELSVCDSISEWVTAADKKTAVDMSGGTVTVLEKVPVSKGQLKQYFYETKCNPMGYTKEGCRGIDKRHWNSQCRTTQSYVRALTMDSKKRIGWRFIRIDTSCVCTLTIKRGR
As to B1, in the data set on hippocampal neurons [2], the “effect of Ab 9651 on promotion of neuron survival by the substance” value was “partially blocked; also recorded: partially inhibits” and the “survival versus CM in the presence of Ab 9651” value is “significantly greater than CM+Ab 9651”. Also, in the data set on p75^NTR−/− cells, the “effect of p75NTR-deficiency on promotion of neuron survival by the substance” value was “partial responsiveness; also recorded: partially inhibits” and the “survival in p75NTR−/− cultures, comparison of treatments” value was “greater survival than NGF”. In the data set with TrkB, the “TrkB activation (Trk Y490 phosphorylation)” value is listed as “robust Trk activation; also recorded: activated TrkB”. In the data set with AKT (compounds 20 nM, BDNF/NGF 50 ng/ml, 10 and 30 min), the AKT activation entry is “substantially greater response”. Also, the ERK42 activation result in the data set with ERK42 is “greater with BDNF and NGF treatment than with the p75-binding compounds; also recorded: prolonged activation”. The “effect of PD98059 (ERK inhibitor) on survival promoted by the substance” value in the data set with hippocampal neurons [3] is “significantly decreased; also recorded: small effects”.

Values taken from US7723328B2, “Methods of facilitating cell survival using neurotrophin mimetics” (The University of North Carolina at Chapel Hill, priority 2005, dated 2010).
